Values of other authors in paper PMC7579232 (Current Clinical Pharmacology, 2020).

Assays:
[1] = rabbits
[2] = rats

## C=CC[C@@H]1/C=C(\C)C[C@H](C)C[C@H](OC)[C@H]2O[C@@](O)(C(=O)C(=O)N3CCCC[C@H]3C(=O)O[C@H](/C(C)=C/[C@@H]3CC[C@@H](O)[C@H](OC)C3)[C@H](C)[C@@H](O)CC1=O)[C@H](C)C[C@@H]2OC [tacrolimus]
A heart transplant patient
  Effect of co-administered pomegranate dietary products on drug concentration: increased

## Cc1ncc2n1-c1ccc(Cl)cc1C(c1ccccc1F)=NC2 [midazolam]
Oral midazolam, healthy volunteers
  Effect of pomegranate juice on Cmax and AUC: did not affect

## CCOC(=O)C1=C(C)NC(C)=C(C(=O)OC)C1c1cccc([N+](=O)[O-])c1 (stereo not drawn) [nitrendipine]
[1]
  Increase of area under the concentration-time curve by pomegranate juice: 2.03 fold
  Increase of peak plasma concentration by pomegranate juice: 2 fold

## NC(=O)N1c2ccccc2C=Cc2ccccc21 [carbamazepine]
[2]
  Effect of pomegranate juice on elimination half-life: does not affect
[2]; oral carbamazepine with pomegranate juice
  Increase of AUC by pomegranate juice: approximately 1.5 fold
